Entries after “also recorded” stand apart in the source; their conditions may differ. Where two headings read alike, the source gives them in different places.
Assays:
[1] = system: Cem/0; test: Cytostatic assay, CEM/0 cells; assay type: cell-based, human; conditions: Homo sapiens, CCRF-CEM; for CC50: Table 1, read-out: CC50 Cem/0
Source text: (§1) The cell lines employed were L1210/0 (a leukemia cell line), FM3A/0 (a breast cancer cell line), Cem/0 (an acute lymphoblastic leukemia cell line) and HeLa (a cervical cell line).

[2] = target: Thymidine Phosphorylase purified from Escherichia coli (Escherichia coli, UniProt P07650); test: Phosphorylase assay by in situ 19F NMR
Method: Two potassium phosphate buffers at pH=7.4, 200 nM solution and 300 nM solution respectively, were used as phosphate donor. Units of enzyme were defined as the amount of enzyme required to hydrolyse about 0.25 mg of inosine per min used as standard. Assays were conducted for 30 minutes.

[3] = system: U87.Hyor; test: Cytostatic assay, Mycoplasma hyorhinis-infected U87 cells; assay type: cell-based, human; conditions: for IC50: Homo sapiens, U-87 MG, read-out: IC50 U87.Hyor
Method: All cells were maintained in Dulbecco's modified Eagle's medium (DMEM) (Invitrogen, Carlsbad, Calif.) with 10% foetal bovine serum (FBS) (Biochrom AG, Berlin, Germany), 10 mM Hepes and 1 mM Sodium Pyruvate (Invitrogen). Cells were grown at 37° C. in a humidified incubator with a gas phase of 5% CO2.
Monolayer cells (U87 and U87.Hyor) were seeded in 48-well microtiter plates (Nunc™, Roskilde, Denmark) at 10,000 cells/well. After 24 hours, an equal volume of fresh medium containing the test compounds was added. On day 5, cells were trypsinized and counted in a Coulter counter (Analis, Suarlée, Belgium). Suspension cells (L1210/0, L1210/TK^−, L1210.Hyor, CEM/0, CEM/TK^−) were seeded in 96-well microtiter plates (Nunc™) at 60,000 cells/well in the presence of a given amount of the test compounds. The cells were allowed to proliferate for 48 h (L1210) or 72 hours (CEM) and were then counted in a Coulter counter.

[4] = target: E. coli TP (Escherichia coli, UniProt P07650); test: Phosphorolysis by E. coli TP, HPLC; conditions: 100 μM compound, room temperature, 0-40 min
Method: Reaction mixtures containing 100 μM test compound and recombinant TP or UP (human TP: 8.6 ng/μL; E. coli TP: 3.0 ng/μL; human UP: 4 ng/mL) in a total volume of 500 μL reaction buffer (10 mM TrisHCl; 300 μM NaCl; 1 mM EDTA; 2 mM KH2PO4/K2HPO4) were incubated at room temperature. At different time points (i.e. 0, 20, 40 min) 100 μL aliquots of the reaction mixtures were withdrawn and heated at 95° C. for 3 min to inactivate the enzyme. The resulting reaction products were separated on a reverse-phase RP-8 column (Merck, Darmstadt, Germany) and quantified by HPLC analysis (Alliance 2690, Waters, Milford, Mass.). […] UV-based detection was performed at 267 nm. The separation of Urd from uracil was performed by a linear gradient from 100% separation buffer (see above) to 60% separation buffer+40% acetonitrile (3 min 100% separation buffer; 6 min linear gradient of 100% separation buffer to 60% separation buffer+40% acetonitrile; 6 min 60% separation buffer+40% acetonitrile, followed by equilibration at 100% separation buffer). UV-based detection was performed at 258 nm.

[5] = system: Cem/hEnt-0; test: Cytostatic assay, CEM cells lacking the hEnt1 transporter; assay type: cell-based; conditions: Homo sapiens, CCRF-CEM, read-out: IC50 Cem/hEnt-0
Source text: (§2) Data are mean (±SD) of at least two to four independent experiments. Table 8 identifies the phosphoramidate motif of compounds embodying the present invention, as discussed above with respect to Table 6, but with “Naph” standing for 1-naphthyl.

[6] = system: FM3A/TK^−; test: Cytostatic assay, FM3A/TK^− cells; assay type: cell-based; conditions: Mus musculus, Table 1, read-out: CC50 FM3A/TK^−
[7] = system: HeLa; test: Cytostatic assay, HeLa cells; assay type: cell-based; conditions: Homo sapiens, HeLa; for CC50: Table 1, read-out: CC50 HeLa; for IC50: Table 6, read-out: IC50 HeLa
Source text: as §1

[8] = system: Cem/hEnt-1; test: Cytostatic assay, CEM cells containing the hEnt1 transporter; assay type: cell-based
Source text: as §2

[9] = system: L1210.Hyor; test: Cytostatic assay, Mycoplasma hyorhinis-infected L1210 cells; conditions: for % Retention: CC50 L1210 × 100 ÷ CC50 L1210/Hyor; for CC50 / IC50: Mus musculus; for CC50: L1210, read-out: CC50 L1210/Hyor
Method in brief: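 Proliferation read by Coulter counting after 48 h exposure of compound-treated L1210 cells carrying M. hyorhinis infection (60,000 cells/well, DMEM with 10% FBS, 37 °C). Values also given as percent activity retained in infected cells.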

[10] = target: thymidylate synthase (TS) (Mus musculus, UniProt P07607); test: TS activity in intact L1210/0 cells (tritium release); assay type: cell-based, murine; conditions: for increase of inhibition of 3H release upon longer preincubation times: up to 4 hr versus 30 min
Method: The activity of TS in intact L1210/0 and L1210/TK^− cells was measured by evaluation of tritium release from [5-^3H]dUMP (formed in the cells from [5-^3H]dUrd or [5-^3H]dCyd) in the reaction catalysed by TS. This method has been described in detail by Balzarini & De Clercq (1984). […] After 30 min, 2 h and 4 h preincubation of the cells with the compounds at 37° C., 1 μCi of [5-^3H]dUrd or [5-^3H]dCyd was added to the cell cultures. After 30 min incubation, 100 μL of the cell suspensions were withdrawn and added to a cold suspension of 500 μL activated charcoal (VWR, Haasrode, Belgium) (100 mg/ml in TCA 5%). After 10 min, the suspension was centrifuged at 13,000 rpm for 10 min, after which the radioactivity in 400 μL supernatant was counted in a liquid sinctillator using OptiPhase HiSafe (Perkin Elmer, Waldham, Mass.).
The activity of TS in intact tumour cells can be directly monitored by measuring the tritium release in intact L1210/0 cell cultures that were exposed to [5-^3H]deoxyuridine ([5-^3H]dUrd) or [5-^3H]deoxycytidine ([5-^3H]dCyd). Indeed, after intracellular conversion of [5-^3H]dUrd or [5-^3H]dCyd to [5-^3H]dUMP, the C-5 tritium atom on the pyrimidine base is released during the TS-catalysed reductive methylation.

[11] = Homo sapiens, CCRF-CEM, read-out: IC50 Cem/hEnt-1
[12] = L1210/0, 30 min preincubation, both substrates, read-out: IC50 for tritium release from [5-3H]dCyd and [5-3H]dUrd
[13] = intact L1210/0 cells, 30 min exposure, read-out: IC50 Tritium release from dCyd*
[14] = intact L1210/0 cells, 30 min exposure, read-out: IC50 Tritium release from dUrd*
[15] = tritium release from [5-3H]dCyd, 4 hours preincubation, read-out: IC50 against TS, L1210/0

Sequence of Thymidine Phosphorylase purified from Escherichia coli (P07650 whole entry): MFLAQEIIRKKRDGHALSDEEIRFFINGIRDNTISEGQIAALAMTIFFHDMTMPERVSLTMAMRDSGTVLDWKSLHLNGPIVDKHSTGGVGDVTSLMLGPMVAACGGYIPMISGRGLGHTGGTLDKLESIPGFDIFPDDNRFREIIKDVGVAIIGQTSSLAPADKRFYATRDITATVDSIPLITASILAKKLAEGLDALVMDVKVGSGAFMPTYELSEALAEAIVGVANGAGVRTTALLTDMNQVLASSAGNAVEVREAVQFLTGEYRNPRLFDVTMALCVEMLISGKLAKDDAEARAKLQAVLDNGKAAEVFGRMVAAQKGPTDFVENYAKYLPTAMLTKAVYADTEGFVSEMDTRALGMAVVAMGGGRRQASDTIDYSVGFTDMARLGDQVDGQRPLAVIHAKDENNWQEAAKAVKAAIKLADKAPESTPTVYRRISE
Sequence of thymidylate synthase (TS) (P07607 whole entry): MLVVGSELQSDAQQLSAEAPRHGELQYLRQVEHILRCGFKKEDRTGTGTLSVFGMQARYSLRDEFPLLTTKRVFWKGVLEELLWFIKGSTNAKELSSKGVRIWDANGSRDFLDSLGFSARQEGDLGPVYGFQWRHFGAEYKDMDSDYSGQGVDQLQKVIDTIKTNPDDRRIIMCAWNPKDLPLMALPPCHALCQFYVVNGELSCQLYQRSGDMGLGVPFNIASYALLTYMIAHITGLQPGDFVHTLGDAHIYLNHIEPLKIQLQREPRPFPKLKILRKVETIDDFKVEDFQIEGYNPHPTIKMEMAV
Sequence of E. coli TP (P07650 whole entry): as the sequence (P07650 whole entry) above

| Structure (SMILES) | CC50 [1] | IC50 ([1]; Table 3, read-out: IC50 CEM/0) | IC50 ([1]; Table 6, read-out: IC50 Cem/0) | Phosphorolysis by E. coli TP [4] | IC50 [5] | CC50 [6] | CC50 [7] | IC50 [7] | IC50 [8, 11] | % Retention [9] | CC50 [9] | IC50 [10, 12] | IC50 [10, 13] | IC50 [10, 14] | IC50 [10, 15] | increase of inhibition of 3H release upon longer preincubation times [10] | other results |
| --- | --- | --- | --- | --- | --- | --- | --- | --- | --- | --- | --- | --- | --- | --- | --- | --- | --- |
| C[C@H](NP(=O)(OC[C@H]1O[C@@H](n2cc(F)c(=O)[nH]c2=O)CC1O)Oc1cccc2ccccc12)C(=O)OCc1ccccc1 (stereo partly drawn) [CPF 373, 5-Fluoro-2′deoxyuridine-5′-O-[1-naphthyl (benzoxy-L-alaninyl)] phosphate] | 89 ± 43 nM | 89 nM | 68 ± 35 nM | fully stable | 600 ± 110 nM | 740 ± 180 nM | 65 ± 13 nM | 65 ± 13 nM | 50 ± 20 nM | 44% | 25 nM | 160 to 190 nM | 190 ± 80 nM | 160 ± 50 nM | 13 nM | 10 fold | Stability in the presence of TP (19F NMR) ([2]; with and without TP, repeated after days): completely stable; also recorded: evident stability against TP enzymatic activity; IC50 [3]: 39 nM; IC50 ([8]; read-out: IC50 Cem/hEnt-1 + NBMPR, in the presence of NBMPR): 260 nM; IC50 ([8]; read-out: IC50 Cem/hEnt-1 + dipyridamole, in the presence of dipyridamole): 130 nM; IC50 ([9]; L1210, read-out: IC50 L1210.Hyor): 25 nM; IC50(L1210.Hyor)/IC50(L1210/0) ([9]; Table 7): 2.27; inhibitory activity on tritium release less pronounced than that of 5-FdUrd ([10]; 30 min preincubation): ~200 fold |
| O=c1[nH]c(=O)n([C@H]2C[C@H](O)[C@@H](CO)O2)cc1F [5-FdUrd, 5-fluoro-2′-deoxyuridine, reference compound] | 28 ± 2 nM | 28 nM | 22 ± 6 nM | rapidly converted | 2500 ± 650 nM | 700 ± 20 nM | 29 ± 7 nM | 50 ± 11 nM | 40 ± 20 nM | 0.2% | 278 nM | 0.7 to 0.9 nM | 0.7 nM | 0.9 ± 0.2 nM | 0.3 nM | 2 fold | Conversion of substrate into the base 5-FU ([2]; potassium phosphate buffer increased to 205 nM): fully converted; Conversion of nucleoside into the free base 5FU ([2]; potassium phosphate buffer, pH 7.4, TP 20.7 UNI, 25° C.): 66%; loss of cytostatic activity in U87.Hyor versus uninfected U87 cells [3]: 400 fold; IC50 ([3]; Table 3): 3000 ± 550 nM; IC50 ([9]; L1210, read-out: IC50 L1210.Hyor, Table 3): 240 nM; loss of cytostatic activity against L1210.Hyor cells ([9]; versus L1210/0): 300 fold |

Source: US10993957B2 (NuCana plc, priority 2011, dated 2021)
